Drawing on the NIST ThermoML archive (doi:10.1021/je200628n), this text covers activity coefficient for 18 compounds.

Numbers after ± are expanded uncertainties.

This data set can be described thus: activity coefficient (dimensionless); of the first substance listed, at infinite dilution; xn = mol fraction of the nth substance listed. To be noted: 101 kPa, Liquid, Chromatography, x1 = 0.

With `CCCCCl` [1-chlorobutane] + NCCCCCCCCCCCCN, the activity coefficient reads like this: (348.25 K) 2.71 ± 0.14; (353.15 K) 2.63 ± 0.14; (358.25 K) 2.56 ± 0.13; (363.21 K) 2.46 ± 0.13.
For the compound `CCCCCl` [1-chlorobutane] + NCCCCCCCCCCN, the activity coefficient by setting is: (338.2 K) 2.38 ± 0.12; (348.15 K) 2.12 ± 0.11; (353.22 K) 2.01 ± 0.1.
`CCCCCl` [1-chlorobutane] + NCCCCCCCCN: the activity coefficient runs as follows: (328.15 K) 1.88 ± 0.095; (338.15 K) 1.65 ± 0.081; (343.15 K) 1.55 ± 0.075; (348.15 K) 1.48 ± 0.071.
With `CCCCCCCl` [1-chlorohexane] + NCCCCCCCCCCCCN, the activity coefficient by setting is: (348.25 K) 4.5 ± 0.23; (353.15 K) 4.27 ± 0.22; (358.25 K) 4.11 ± 0.21; (363.21 K) 3.94 ± 0.2.
As for `CCCCCCCl` [1-chlorohexane] + NCCCCCCCCCCN, the activity coefficient came to 3.46 ± 0.18 (338.2 K), 2.81 ± 0.14 (348.15 K) and 2.54 ± 0.13 (353.22 K).
For the compound `CCCCCCCl` [1-chlorohexane] + NCCCCCCCCN, the activity coefficient came to 3.85 ± 0.2 (328.15 K), 2.73 ± 0.14 (338.15 K), 2.38 ± 0.12 (343.15 K) and 2.02 ± 0.1 (348.15 K).
Take `CCCCCCl` [1-chloropentane] + NCCCCCCCCCCCCN: the activity coefficient (348.25 K) came out at 3.08 ± 0.16, the activity coefficient (353.15 K) turned out to be 2.91 ± 0.15, the activity coefficient (358.25 K) is 2.73 ± 0.14 and the activity coefficient (363.21 K) worked out at 2.68 ± 0.14.
As to `CCCCCCl` [1-chloropentane] + NCCCCCCCCCCN, the activity coefficient by setting is: (338.2 K) 2.94 ± 0.15; (348.15 K) 2.43 ± 0.12; (353.22 K) 2.23 ± 0.12.
For the compound `CCCCCCl` [1-chloropentane] + NCCCCCCCCN, the activity coefficient was 2.71 ± 0.14 (328.15 K), 2.12 ± 0.11 (338.15 K), 1.92 ± 0.098 (343.15 K) and 1.73 ± 0.087 (348.15 K).
Consider `C=CCCCCCCCC` [1-decene] + NCCCCCCCCCCCCN, for which the activity coefficient stood at 5.05 ± 0.26 (348.25 K), 4.8 ± 0.25 (353.15 K), 4.47 ± 0.23 (358.25 K) and 4.24 ± 0.22 (363.21 K).
`C=CCCCCCCCC` [1-decene] + NCCCCCCCCCCN: the activity coefficient stood at 4.34 ± 0.22 (338.2 K), 3.82 ± 0.2 (348.15 K) and 3.57 ± 0.18 (353.22 K).
Regarding `C=CCCCCCCCC` [1-decene] + NCCCCCCCCN, the activity coefficient (328.15 K) was found to be 4.24 ± 0.22, the activity coefficient (338.15 K) is 3.58 ± 0.18, the activity coefficient (343.15 K) was determined as 3.33 ± 0.17 and the activity coefficient (348.15 K) worked out at 3.14 ± 0.16.
On to `C=CCCCCC` [1-heptene] + NCCCCCCCCCCCCN, for which the activity coefficient was 4.43 ± 0.23 (348.25 K), 4.22 ± 0.22 (353.15 K), 4.08 ± 0.21 (358.25 K) and 3.88 ± 0.2 (363.21 K).
With `C=CCCCCC` [1-heptene] + NCCCCCCCCCCN, the activity coefficient is 3.43 ± 0.18 (338.2 K), 3.1 ± 0.16 (348.15 K) and 2.97 ± 0.15 (353.22 K).
On to `C=CCCCCC` [1-heptene] + NCCCCCCCCN, for which the activity coefficient (328.15 K) is 3.59 ± 0.18, the activity coefficient (338.15 K) came to 3.21 ± 0.17, the activity coefficient (343.15 K) was determined as 3.03 ± 0.15 and the activity coefficient (348.15 K) amounted to 2.93 ± 0.15.
Regarding `C=CCCC` [1-pentene] + NCCCCCCCCCCCCN, the activity coefficient was 4.21 ± 0.22 (348.25 K), 4.04 ± 0.21 (353.15 K), 3.89 ± 0.2 (358.25 K) and 3.75 ± 0.19 (363.21 K).
Turning to `C=CCCC` [1-pentene] + NCCCCCCCCCCN, the activity coefficient amounted to 3.23 ± 0.17 (338.2 K), 2.98 ± 0.15 (348.15 K) and 2.88 ± 0.15 (353.22 K).
`C=CCCC` [1-pentene] + NCCCCCCCCN: the activity coefficient is, setting by setting: (328.15 K) 2.81 ± 0.14; (338.15 K) 2.7 ± 0.14; (343.15 K) 2.67 ± 0.14; (348.15 K) 2.65 ± 0.14.
